Results published in ChEMBL document CHEMBL3885861, “Open TG-GATES”.

Species: Rattus norvegicus
Test: Open TG-GATES - Regimen: Single
Type: toxicity, organism-based, Sprague-Dawley
Parameters: regimen Single, gender Male, age 6 weeks
Conditions: in vivo, po, 0 mg/kg, route gavage, dose level Control; for APTT / Bas / Eos / Fbg / Hb / Ht / Lym / MCH / MCHC / Mono / Neu / Plat / RBC / Ret / WBC: tissue Blood; for KIDNEY_L / KIDNEY_R / KIDNEY_TOTAL: tissue Kidney; for LIVER: tissue Liver; for ALP / ALT / AST / BUN / CRE / Ca / Cl / DBIL / GLC / IP / K / LDH / Na / PL / RALB / TBIL / TC / TG / TP / gamma-GTP: tissue Plasma

Q: What does the source list for `O=C(CCCN1CCC(O)(c2ccc(Cl)cc2)CC1)c1ccc(F)cc1` [HALOPERIDOL]?
A: TERMINAL_BW (3 h): 208.8 g; APTT (3 h): 16.5 s; Bas (3 h): 0%; Eos (3 h): 0%; Fbg (3 h): 202 mg/dL; Hb (3 h): 13.4 g/dL; Ht (3 h): 40.2%; Lym (3 h): 77.8%; MCH (3 h): 21.8 pg; MCHC (3 h): 33.5%; Mono (3 h): 9.2%; Neu (3 h): 13%; Plat (3 h): 94.5 x10_4/uL; RBC (3 h): 616.8 x10_4/ul; Ret (3 h): 8.7%; WBC (3 h): 114.5 x10_2/uL; KIDNEY_L (3 h): 1 g; KIDNEY_R (3 h): 1 g; KIDNEY_TOTAL (3 h): 2 g; LIVER (3 h): 10.1 g; ALP (3 h): 1053.2 IU/L; ALT (3 h): 34.4 IU/L; AST (3 h): 64.4 IU/L; BUN (3 h): 16 mg/dL; CRE (3 h): 0.5 mg/dL; Ca (3 h): 11.4 mg/dL; Cl (3 h): 105 meq/L; DBIL (3 h): 0.006 mg/dL; GLC (3 h): 185.6 mg/dL; IP (3 h): 9.4 mg/dL; K (3 h): 5.2 meq/L; LDH (3 h): 85 IU/L; Na (3 h): 139 meq/L; PL (3 h): 151.4 mg/dL; RALB (3 h): 3.7 g/dL; TBIL (3 h): 0.4 mg/dL; TC (3 h): 82.8 mg/dL; TG (3 h): 63.2 mg/dL; TP (3 h): 5.6 g/dL; gamma-GTP (3 h): 1.4 IU/L; TERMINAL_BW (6 h): 200.9 g; APTT (6 h): 16.6 s; Bas (6 h): 0%; Eos (6 h): 0.2%; Fbg (6 h): 206.4 mg/dL; Hb (6 h): 13.6 g/dL; Ht (6 h): 40.6%; Lym (6 h): 72%; MCH (6 h): 21.7 pg; MCHC (6 h): 33.4%; Mono (6 h): 5.8%; Neu (6 h): 22%; Plat (6 h): 102.2 x10_4/uL; RBC (6 h): 625.8 x10_4/ul; Ret (6 h): 8.8%; WBC (6 h): 95.9 x10_2/uL; KIDNEY_L (6 h): 0.9 g; KIDNEY_R (6 h): 1 g; KIDNEY_TOTAL (6 h): 1.9 g; LIVER (6 h): 9.3 g; ALP (6 h): 862.2 IU/L; ALT (6 h): 34.8 IU/L; AST (6 h): 62 IU/L; BUN (6 h): 11.4 mg/dL; CRE (6 h): 0.5 mg/dL; Ca (6 h): 10.7 mg/dL; Cl (6 h): 104.8 meq/L; DBIL (6 h): 0.036 mg/dL; GLC (6 h): 175.2 mg/dL; IP (6 h): 10.1 mg/dL; K (6 h): 5.1 meq/L; LDH (6 h): 92.4 IU/L; Na (6 h): 137.6 meq/L; PL (6 h): 142.8 mg/dL; RALB (6 h): 3.7 g/dL; TBIL (6 h): 0.3 mg/dL; TC (6 h): 80.2 mg/dL; TG (6 h): 47.8 mg/dL; TP (6 h): 5.6 g/dL; gamma-GTP (6 h): 1.4 IU/L; TERMINAL_BW (9 h): 199.3 g; APTT (9 h): 16.7 s; Bas (9 h): 0%; Eos (9 h): 0.8%; Fbg (9 h): 205.4 mg/dL; Hb (9 h): 13.7 g/dL; Ht (9 h): 41%; Lym (9 h): 68.6%; MCH (9 h): 22.1 pg; MCHC (9 h): 33.3%; Mono (9 h): 6.6%; Neu (9 h): 24%; Plat (9 h): 103.6 x10_4/uL; RBC (9 h): 619.2 x10_4/ul; Ret (9 h): 8.3%; WBC (9 h): 96.1 x10_2/uL; KIDNEY_L (9 h): 0.9 g; KIDNEY_R (9 h): 0.9 g; KIDNEY_TOTAL (9 h): 1.8 g; LIVER (9 h): 8.6 g; ALP (9 h): 860.2 IU/L; ALT (9 h): 32.6 IU/L; AST (9 h): 59.8 IU/L; BUN (9 h): 12.2 mg/dL; CRE (9 h): 0.5 mg/dL; Ca (9 h): 10.5 mg/dL; Cl (9 h): 106.2 meq/L; DBIL (9 h): 0.024 mg/dL; GLC (9 h): 188.4 mg/dL; IP (9 h): 10.8 mg/dL; K (9 h): 5.1 meq/L; LDH (9 h): 83.8 IU/L; Na (9 h): 138 meq/L; PL (9 h): 134.4 mg/dL; RALB (9 h): 3.8 g/dL; TBIL (9 h): 0.4 mg/dL; TC (9 h): 76.8 mg/dL; TG (9 h): 35.4 mg/dL; TP (9 h): 5.5 g/dL; gamma-GTP (9 h): 1.8 IU/L; TERMINAL_BW (24 h): 214.4 g; APTT (24 h): 16.2 s; Bas (24 h): 0%; Eos (24 h): 0.8%; Fbg (24 h): 205.8 mg/dL; Hb (24 h): 13.3 g/dL; Ht (24 h): 39.3%; Lym (24 h): 75.4%; MCH (24 h): 22 pg; MCHC (24 h): 33.9%; Mono (24 h): 6.8%; Neu (24 h): 17%; Plat (24 h): 107.6 x10_4/uL; RBC (24 h): 605.8 x10_4/ul; Ret (24 h): 8.9%; WBC (24 h): 82.8 x10_2/uL; KIDNEY_L (24 h): 0.9 g; KIDNEY_R (24 h): 1 g; KIDNEY_TOTAL (24 h): 1.9 g; LIVER (24 h): 10.6 g; ALP (24 h): 1093.2 IU/L; ALT (24 h): 43 IU/L; AST (24 h): 64.8 IU/L; BUN (24 h): 19.2 mg/dL; CRE (24 h): 0.6 mg/dL; Ca (24 h): 11 mg/dL; Cl (24 h): 104.6 meq/L; DBIL (24 h): 0.028 mg/dL; GLC (24 h): 185.4 mg/dL; IP (24 h): 8.2 mg/dL; K (24 h): 4.9 meq/L; LDH (24 h): 82.6 IU/L; Na (24 h): 138.8 meq/L; PL (24 h): 165.4 mg/dL; RALB (24 h): 3.7 g/dL; TBIL (24 h): 0.4 mg/dL; TC (24 h): 87.2 mg/dL; TG (24 h): 94.8 mg/dL; TP (24 h): 5.7 g/dL
